What all share (assay type): cell-based, Human
Assay [1] relates to NCI-H358 cells. Kind of assay: Inhibitory effect of compounds on NCI-H358 cell proliferation. The method in brief: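 Adherent NCI-H358 cells were exposed to compound for 72 h, then viability was read by luminescence (Cell Counting-Lite 2.0). Inhibition calculated from RLU relative to cell-free background and vehicle wells; IC50 from a four-parameter fit.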
The subject of assay [2] is Hela cells. The assay can be described thus: Inhibitory effect of compounds on Hela cell proliferation. To be noted: read-out: IC50, inhibitory activity on Hela cell proliferation.
Assay [3] relates to NCI-N87 cells. The assay can be described thus: Inhibitory effect of compounds on NCI-N87 cell proliferation. The method in brief: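 Adherent NCI-N87 cells were exposed to compound dilutions for 72 h. Viability measured by Cell Counting-Lite 2.0 luminescence, with inhibition calculated against vehicle and cell-free background RLU. IC50 from four-parameter fit.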
The subject of assay [4] is HT29 cells. Kind of assay: Inhibitory effect of compounds on HT29 cell proliferation. The settings on record: read-out: IC50, inhibitory activity on HT29 cell proliferation. Put shortly:
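Adherent HT29 cells incubated with diluted compounds for 72 h; viability read by luminescence (Cell Counting-Lite 2.0, 10 min). Inhibition calculated against cell-free background and vehicle-treated cells; IC50 from four-parameter curve fit.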

Assay [5] deals with SKOV-3 cells. The assay can be described thus: Inhibitory effect of compounds on SKOV-3 cell proliferation. The settings on record: read-out: IC50, inhibitory activity on SKOV-3 cell proliferation.
Assay [6] concerns HCC1806 cells. The assay can be described thus: Inhibitory effect of compounds on HCC1806 cell proliferation. The method in brief: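 HCC1806 cells, once adhered, were exposed to diluted compound for 72 h. Viability was read by Cell Counting-Lite 2.0 luminescence, inhibition calculated against vehicle and cell-free background RLU, and IC50 fitted with a four-parameter model.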
[7] abbreviates: Homo sapiens, NCI-H358, 72 h, read-out: IC50, inhibitory activity on NCI-H358 cell proliferation, NCI-H358 human non-small cell lung cancer cells, 72 h incubation, Cell Counting-Lite 2.0.
[8] abbreviates: Homo sapiens, NCI-N87, 72 h, read-out: IC50, inhibitory activity on NCI-N87 cell proliferation, NCI-N87 human gastric cancer cells, 72 h incubation, Cell Counting-Lite 2.0.
Where [9] appears, read: Homo sapiens, HCC1806, 72 h, read-out: IC50, inhibitory activity on HCC1806 cell proliferation, HCC1806 human breast squamous carcinoma cells, 72 h incubation, Cell Counting-Lite 2.0.

Like-named read-outs stand apart in the source and are kept apart here.

`CC#C[C@@H](O)C(=O)N[C@H]1CCc2c(C)c(F)cc3nc4c(c1c23)Cn1c-4cc2c(c1=O)COC(=O)[C@]2(O)CC` [Example 1 (1-1-A), (R)—N-((1S,9S)-9-ethyl-5-fluoro-9-hydroxy-4-methyl-10,13-dioxo-2,3,9,10,13,15-hexahydro-1H,12H-benzo[de]pyrano[3′,4′:6,7]indolizino[1,2-b]quinolin-1-yl)-2-hydroxypent-3-yneamide]: the IC50 was found to be 65.2 nM in assay [1] (setting [7]); 4.57 nM in assay [2] (Homo sapiens, HeLa, 72 h); 4.58 nM in assay [3] (setting [8]); 1.28 nM in assay [4] (Homo sapiens, HT-29, 72 h); 7.81 nM in assay [5] (Homo sapiens, SK-OV-3, 72 h).

Consider `CC[C@@]1(O)C(=O)OCc2c1cc1n(c2=O)Cc2c-1nc1cc(Cl)c(C)c3c1c2[C@@H](NC(=O)[C@@H](O)C1CC1)CC3` [Example 5 (2-12-A), (2S)—N-((1S,9S)-5-chloro-9-ethyl-9-hydroxy-4-methyl-10,13-dioxo-2,3,9,10,13,15-hexahydro-1H,12H-benzo[de]pyrano[3′,4′:6,7]indolizino[1,2-b]quinolin-1-yl)-2-cyclopropyl-2-hydroxyacetamide], for which the IC50 in assay [1] (setting [7]) was found to be 17.6 nM; in assay [2] (Homo sapiens, HeLa, 72 h), 13.2 nM; in assay [6] (setting [9]) it was 1.4 nM; in assay [3] (setting [8]), 4.91 nM; in assay [4] (Homo sapiens, HT-29, 72 h), 3.01 nM; in assay [5] (Homo sapiens, SK-OV-3, 72 h), 6.85 nM.

With `CC[C@@]1(O)C(=O)OCc2c1cc1n(c2=O)Cc2c-1nc1cc(Cl)c(C)c3c1c2[C@H](NC(=O)[C@@H](O)C1CC1)CC3` [Example 5 (2-12-B), (2S)—N-((1R,9S)-5-chloro-9-ethyl-9-hydroxy-4-methyl-10,13-dioxo-2,3,9,10,13,15-hexahydro-1H,12H-benzo[de]pyrano[3′,4′:6,7]indolizino[1,2-b]quinolin-1-yl)-2-cyclopropyl-2-hydroxyacetamide], the IC50 came out at 15.8 nM in assay [1] (setting [7]); 16.7 nM in assay [2] (Homo sapiens, HeLa, 72 h); 1.07 nM in assay [6] (setting [9]); 4.97 nM in assay [3] (setting [8]); 2.34 nM in assay [4] (Homo sapiens, HT-29, 72 h); 4.99 nM in assay [5] (Homo sapiens, SK-OV-3, 72 h).

For “(2S)—N-((1S,9S)-5-chloro-9-ethyl-9-hydroxy-4-methyl-10,13-dioxo-2,3,9,10,13,15-hexahydro-1H,12H-benzo[de]pyrano[3′,4′:6,7]indolizino[1,2-b]quinolin-1-yl)-2-hydroxypropylamine [Example 4 (2-7-A)]”, the IC50 in assay [1] (NCI-H358 human non-small cell lung cancer cells, 72 h incubation, Cell Counting-Lite 2.0, read-out: IC50, inhibitory activity on NCI-H358 cell proliferation) was 35.4 nM; in assay [2] (Hela human cervical cancer cells, 72 h incubation, Cell Counting-Lite 2.0) it was 13.8 nM; in assay [6] (HCC1806 human breast squamous carcinoma cells, 72 h incubation, Cell Counting-Lite 2.0, read-out: IC50, inhibitory activity on HCC1806 cell proliferation) it was 1.25 nM; in assay [3] (NCI-N87 human gastric cancer cells, 72 h incubation, Cell Counting-Lite 2.0, read-out: IC50, inhibitory activity on NCI-N87 cell proliferation) it was 3.76 nM; in assay [4] (HT29 human colon cancer cells, 72 h incubation, Cell Counting-Lite 2.0) it was 1.56 nM; in assay [5] (SKOV-3 human ovarian cancer cells, 72 h incubation, Cell Counting-Lite 2.0), 8.64 nM.
